Laboratory results reported in patent US20080300288A1, “Alkenyldiarylmethanes, Fused Analogs And Syntheses Thereof” (PURDUE RESEARCH FOUNDATION, priority 2005, published 2008).
Read-outs that look alike come from different tables or passages of the source.

How the values were obtained:
[1] = biological target: T1, recombinant HIV-1 RT enzyme (p66/51 dimer) (Human immunodeficiency virus type 1 group M subtype B, UniProt P04585); test: RT inhibition assay, incorporation of [32P]GTP into poly(rC)/oligo(dG); type: biochemical
T1 construct: recombinant HIV-1 RT enzyme (p66/51 dimer)
Description: RT Inhibition Assay. Analysis of the effects of the compounds on recombinant HIV-1 RT enzyme (p66/51 dimer) was performed as previously described. See, Buckheit, R. W. J.; Fliakas-Boltz, V.; Decker, W. D.; Robertson, J. L.; Stup, T. L.; Pyle, C. […] Antiviral Res. 1995, 26, 117-132, the disclosure of which is incorporated herein by reference. Briefly, inhibition of purified recombinant reverse transcriptase enzyme was measured by the incorporation of [^32P]GTP into poly(rC)/oligo(dG) (rCdG) homopolymer template primers.

[2] = system: HIV-1RF; test: MTS cytoprotection assay, HIV-1RF infection in CEM-SS cells; type: cell-based; settings: Human immunodeficiency virus 1; HIV-1RF in CEM-SS cells; read-out: EC50 HIV-1RF (inhibition of cytopathicity)
Description: (§1) In Vitro Antiviral Assays. Evaluation of the antiviral activity of compounds against HIV-1RF infection in CEM-SS cells was performed using the MTS cytoprotection assay as previously described. See, Rice, W. G.; Bader, J. P. Discovery and in Vitro Development of AIDS Antiviral Drugs as Biopharmaceuticals. Adv. Pharmacol. (San Diego) 1995, 6, 389-438, the disclosure of which is incorporated herein by reference. […] See, Pauwels, R.; Balzarini, J.; Baba, M.; Snoeck, R.; Schols, D.; Herdewijn, P.; Desmyter, J.; De Clercq, E. Rapid and Automated Tetrazolium-based Colorimetric Assay for Detection of Anti-HIV Compounds. J. Virol. Methods 1988, 20, 309-321, the disclosure of which is incorporated herein by reference.

[3] = system: HIV-1 strain IIIB; test: MTT assay, HIV-1 strain IIIB in MT-4 cells; type: cell-based; settings: Human immunodeficiency virus 1, MT4; HIV-1IIIB in MT-4 cells; read-out: EC50 HIV-1IIIB (inhibition of cytopathicity)
[4] = system: CEM-SS cells; test: Cytotoxicity in mock-infected CEM-SS cells; type: cell-based; settings: read-out: CC50 CEM-SS Cells (50% cytotoxic concentration)
Description: as §1, with “[…].;” for “D.; Herdewijn, P.; Desmyter, J.;”, “[…].” for “Clercq, E.”

[5] = system: MT-4 cells; test: Cytotoxicity in mock-infected MT-4 cells; type: cell-based; settings: read-out: CC50 MT-4 Cells (50% cytotoxic concentration)
[6] = In vitro hydrolytic stability study in rat plasma; type: in vitro ADME; settings: rat plasma in vitro, half-life
Description: NMR spectra were obtained at 300 MHz (^1H) and 75 MHz (^13C) in CDCl3 using CHCl3 as internal standard. Flash chromatography was performed with 230-400 mesh silica gel. […] Melting points are uncorrected. Unless otherwise stated, chemicals and solvents were of reagent grade and used as obtained from commercial sources without further purification. Tetrahydrofuran (THF) was freshly distilled from sodium/benzophenone ketyl radical prior to use. Dichloromethane was freshly distilled from calcium hydride prior to use. Lyophilized rat plasma (lot 052K7609) was obtained from Sigma Chemical Co., St. Louis, Mo. All yields given refer to isolated yields.
In vitro Hydrolytic Stability Study in Rat Plasma. […] See, Silvestri, M. A.; Nagarajan, M.; De Clercq, E.; Pannecouque, C.; Cushman, M. Design, Synthesis, Anti-HIV Activities, and Metabolic Stabilities of Alkenyldiarylmethane (ADAM) Non-nucleoside Reverse Transcriptase Inhibitors. J. Med. Chem. 2004, 47, 3149-3162, the disclosure of which is incorporated herein by reference.

[7] = Cytotoxicity in mock-infected CEM-SS cells; type: cell-based; settings: human, uninfected (mock-infected) CEM-SS cells
Description: as §1, with “[…].;” for “D.; Herdewijn, P.; Desmyter, J.;”, “[…].” for “Clercq, E.”

[8] = Cytotoxicity in mock-infected MT-4 cells; type: cell-based; settings: human, uninfected (mock-infected) MT-4 cells
[9] = system: HIV-2 strain (ROD); test: MTT assay, HIV-2 strain (ROD) in MT-4 cells; type: cell-based; settings: Human immunodeficiency virus 2, MT4; HIV-2ROD in MT-4 cells; read-out: EC50 HIV-2-ROD (inhibition of cytopathicity)

Row | Structure (SMILES) | IC50 ([1]; poly(rC)•oligo(dG) as the template primer, read-out: IC50 (inhibitory activity vs HIV-1 reverse transcriptase)) | EC50 [2] | EC50 [3] | CC50 [4] | CC50 [5] | Rat Plasma tp1/2 (min ± SD) [6] | IC50 [1] | CC50 [7] | CC50 [8] | EC50 [9] | melting point
1 | COC(=O)CCCC=C(c1cc(C)c(OC)c(C(=O)OC)c1)c1cc(C)c(OC)c(C(=O)OC)c1 [Compound 1, Methyl 4′,4″-Dimethoxy-3′,3″-di(methoxycarbonyl)-5′,5″-dimethyl-6,6-diphenyl-5-hexenoate] | 1 µM | 0.25 µM | 1 µM | 6 µM | 6.1 µM | 0.76 ± 0.04 min |  |  |  |  | 
2 | COC(=O)CCC/C=C(\c1cccc(C#N)c1)c1cc(C)c2onc(OC)c2c1 [Compound 20, (E)-6-(3-Cyanophenyl)-6-(3-methoxy-7-methylbenzo[d]isoxazol-5-yl)-hex-5-enoic Acid Methyl Ester] |  | > 100 µM | > 2.05 µM |  |  | 1.16 ± 0.08 min | 5.7 µM | 0.8 µM | 4.69 µM | > 5.63 µM | 
3 | COC(=O)CCC/C=C(/c1cc(C)c(OC)c(C(=O)OC)c1)c1cc(C)c2oc(=O)n(C)c2c1 [Compound 60, (Z)-5-[1-(3,7-Dimethyl-2-oxo-2,3-dihydro-benzoxazol-5-yl)-5-methoxycarbonyl-pent-1-enyl]-2-methoxy-3-methylbenzoic Acid Methyl Ester] |  | 0.87 µM | 1.01 µM |  |  | 1.74 ± 0.00 min | 0.16 µM | 9.39 µM | 28.2 µM | > 28.2 µM | 
4 | COC(=O)CCC/C=C(/c1cc(Cl)c(OC)c(C(=O)OC)c1)c1cc(C)c2oc(=O)n(C)c2c1 [Compound 61, (E)-3-Chloro-5-[1-(3,7-dimethyl-2-oxo-2,3-dihydro-benzoxazol-5-yl)-5-methoxycarbonyl-pent-1-enyl]-2-methoxybenzoic Acid Methyl Ester] |  | 0.53 µM | 0.25 µM |  |  | 0.19 ± 0.01 min | 0.93 µM | 9.47 µM | 29.7 µM | > 29.7 µM | 
5 | COC(=O)CCC/C=C(/c1ccc(OC)c(C(=O)OC)c1)c1cc(C)c2oc(=O)n(C)c2c1 [Compound 62, (Z)-5-[1-(3,7-Dimethyl-2-oxo-2,3-dihydrobenzoxazol-5-yl)-5-methoxycarbonyl-pent-1-enyl]-2-methoxy-benzoic Acid Methyl Ester] |  | 3.08 µM | 4.15 µM |  |  | 0.34 ± 0.15 min | 0.99 µM | > 13.5 µM | 115 µM | > 115 µM | 134 to 135 °C
6 | COC(=O)CCC/C=C(\c1cc(F)cc(C(F)(F)F)c1)c1cc(C)c2oc(=O)n(C)c2c1 [Compound 63, (Z)-6-(3,7-Dimethyl-2-oxo-2,3-dihydrobenzoxazol-5-yl)-6-(3-fluoro-5-trifluoromethylphenyl)-hex-5-enoic Acid Methyl Ester] |  | > 100 µM | 4.36 µM |  |  | 3.06 ± 0.32 min | > 100 µM | 15 µM | 51 µM | > 60 µM | 
7 | COC(=O)CCC/C=C(\c1cc(C)c(OC)c(C(=O)OC)c1)c1cc(C)c2oc(=O)n(C)c2c1 [Compound 64, (E)-5-[1-(3,7-Dimethyl-2-oxo-2,3-dihydro-benzoxazol-5-yl)-5-methoxycarbonyl-pent-1-enyl]-2-methoxy-3-methylbenzoic Acid Methyl Ester] |  | 0.03 µM | 0.09 µM | 5.1 µM | 16.9 µM | 1.30 ± 0.09 min | 0.02 µM |  |  | > 16.9 µM | 
8 | COC(=O)CCC/C=C(/c1cc(C)c2on(C)c(=O)c2c1)c1cc(C)c2oc(=O)n(C)c2c1 [Compound 65, (Z)-6-(2,7-Dimethyl-3-oxo-2,3-dihydro-benzo[d]isoxazol-5-yl)-6-(3,7-dimethyl-2-oxo-2,3-dihydro-benzoxazol-5-yl)-hex-5-enoic Acid Methyl Ester] |  | 1.79 µM | 4.48 µM |  |  | 0.46 ± 0.03 min | 49.2 µM | 11.1 µM | 36.5 µM | > 36.5 µM | 
9 | COC(=O)CCCC=C(c1cc(C)c2oc(=O)n(C)c2c1)c1cc(C)c2oc(=O)n(C)c2c1 [Compound 66, 6,6-Bis-(3,7-dimethyl-2-oxo-2,3-dihydrobenzoxazol-5-yl)-hex-5-enoic Acid Methyl Ester] |  | 0.62 µM | 0.22 µM |  |  | 0.59 ± 0.01 min | 0.5 µM | 31 µM | 32.5 µM | > 32.5 µM | 
